Measurements as given in patent publication US11965180B2, “Cancer stem cell population and method for production thereof” (CHUGAI SEIYAKU KABUSHIKI KAISHA, priority 2010, dated 2024).

Assays:
Format in all cases: cell-based, human
[1] = tested on: Lgr5-negative colon cancer stem cells; assay: Cell growth, Cell Counting Kit-8, floating cancer stem cells; conditions: 3-day culture; for growth and survival of Lgr5-negative colon cancer stem cells: 10 μg/ml
Experimental: (§1) To determine whether or not the Wnt signaling promotes the growth of colon cancer stem cells, the inventors examined the effects of FH535 (β-catenin/TCF inhibitor) and cardamonin (Wnt/β-catenin inhibitor that induces β-catenin degradation) on the growth of colon cancer stem cells. Cell growth was evaluated as described below. Floating and adherent cancer stem cells were seeded at about 100 and 1×10^4 cells per well, respectively, in 96-well plates. On days 0 and 3, living cells were counted using the Cell Counting Kit-8 assay (Doujindo) according to the manufacturer's protocol. The average absorbance on day 0 was expressed as 100%. For chemical sensitivity analysis, floating and adherent cancer stem cells were seeded at about 100 and 1×10^4 cells per well in 96-well plates, respectively. […] After 3-day culture in the presence of a drug, Cell Counting Kit-8 was added to the cells. The average absorbance of cells exposed to DMSO or the medium alone was expressed as 100%. All the experiments were conducted in triplicate.

[2] = tested on: Lgr5-positive colon cancer stem cells; assay: Cell growth, Cell Counting Kit-8, adherent cancer stem cells; conditions: 3-day culture; for growth of Lgr5-positive colon cancer stem cells: PLR123 and PLR59 cells
Experimental: as §1

[3] = tested on: Lgr5-positive colon cancer stem cells; assay: Lgr5 expression in adherent cancer stem cells after chemotherapeutic agent treatment (flow cytometry); conditions: after 3 days of exposing Lgr5-positive colon cancer stem cells to 10 μg/ml
Experimental: Gray indicates fluorescence intensity or ALDH activity after staining cells with the antibodies described. White indicates fluorescence intensity or ALDH activity of an ALDH inhibitor after staining cells with a control isotype antibody.
CSC was incubated with a labeled antibody and analyzed using EPICS ALTRA (Beckman Coulter) and FACSCalibur (Becton Dickinson). The antibodies used were PE-labeled mouse anti-human CD133 (Miltenyi Biotec), PE-labeled mouse anti-human CD44 (BD Pharmingen), FITC-labeled mouse anti-human CD326 (EpCAM) (Miltenyi Biotec), PE-labeled mouse anti-human CD166 (R & D Systems), PE-labeled mouse anti-human CD24 (BD Pharmingen), PE-labeled mouse anti-human CD26 (BD Pharmingen), and PE-labeled mouse anti-human CD29 (BD Pharmingen) antibodies.
Subsequently, the CSC was incubated with a mouse anti-human Lgr5 antibody (2T15E-2) and then a PR-labeled rat anti-mouse IgG (Invitrogen) antibody for Lgr5 staining. Aldehyde dehydrogenase activity was measured using the AldeFluor Kit (Stemcell Technologies). Mouse cells and human CSC were distinguished by staining with an anti-mouse MHC class I antibody (Abcam) and a PE- or APC-labeled goat anti-human IgG2a (BioLegend) antibody. Dead cells were removed with the 7-AAD Viability Dye (Beckman Coulter).

## COc1cc(O)cc(O)c1C(=O)/C=C/c1ccccc1 [cardamonin]
[1]; 50 μM, relative to DMSO alone, Lgr5-negative colon cancer stem cells
  number of living cells: about 50%
[2]; 50 μM, relative to DMSO alone, Lgr5-positive colon cancer stem cells
  number of living cells: 70%

## CCc1c2c(nc3ccc(OC(=O)N4CCC(N5CCCCC5)CC4)cc13)-c1cc3c(c(=O)n1C2)COC(=O)[C@]3(O)CC [irinotecan]
[1]; PLR123 and PLR59 cells
  growth and survival of Lgr5-negative colon cancer stem cells: had no effect on the growth and survival
[2]; 10 μg/ml
  growth of Lgr5-positive colon cancer stem cells: significantly inhibited the growth

## Cc1cc([N+](=O)[O-])ccc1NS(=O)(=O)c1cc(Cl)ccc1Cl [FH535]
[1]; 50 μM, PLR123 and PLR59 cells
  growth of Lgr5-negative colon cancer stem cells: had no effect on the growth
[2]; 50 μM
  growth of Lgr5-positive colon cancer stem cells: significantly reduced the growth

## O=c1[nH]cc(F)c(=O)[nH]1 [5-FU]
[1]; PLR123 and PLR59 cells
  growth and survival of Lgr5-negative colon cancer stem cells: had no effect on the growth and survival
[2]; 10 μg/ml
  growth of Lgr5-positive colon cancer stem cells: significantly inhibited the growth
[3]
  Lgr5 status of drug-resistant cells: negative for Lgr5
